# Laboratory results from patent US5134138A, “Phenacylpyridiniothiocephalosporins” (Shionogi & Co., Ltd., priority 1989, dated 1992).
# Like-named read-outs stand apart in the source and are kept apart here.
# Tests used:
# [1] = system: Pseudomonas aeruginosa SR 5018; experiment: minimal inhibitory concentration (agar plate two-fold dilution), ofloxacin resistant Pseudomonas aeruginosa SR 5018; type: cell-based; settings: SR5018
# Procedure: (§1) 3) The said sodium salt (1 g) prepared by neutralizing under sterile condition is dissolved in distilled water for injection (4 g) and administered to a patient suffering from sensitive pseudomonal bacteria twice a day intravenously to treat this infection. The free acid or sodium salt is dissolved in 0.01N-aqueous sodium hydrogen carbonate and tested for minimal inhibitory concentration against gram-negative bacteria according to a method of Japan Society of Chemotherapy on an agar plate by two-fold dilution method.
# Escherichia coli SR 5082 = experiment: minimal inhibitory concentration (agar plate two-fold dilution), Escherichia coli SR 5082; type: cell-based; settings: SR5082
# Procedure: as §1
# [2] = system: Pseudomonas aeruginosa SR 24; experiment: minimal inhibitory concentration (agar plate two-fold dilution), Pseudomonas aeruginosa SR 24; type: cell-based
# Procedure: as §1
# The minimal inhibitory concentration of Compound (I) where R^1 is 2-(2-amino-4-thiazolyl)-2-(1-carboxy-1-methylethoxyimino)acetamido, R^2 is hydrogen, R^3 is hydrogen, R^4 is 3,4-dihydroxyphenyl, R^5 is methylene, R^6 combined with Y- is negative charge, and X is sulfur against Pseudomonas aeruginosa SR 24 is 0.2 μg/ml. By altering the groups with the following ones to vary the activities as listed below.
# [3] = system: Pseudomonas aeruginosa SR 24; experiment: 50% effective dose preventing lethal Pseudomonas aeruginosa SR 24 mouse infection; type: in vivo
# Text: (§2) The compound is highly safe in the case of intravenous injection to various animals.
# various animals = experiment: safety, intravenous injection to various animals; type: in vivo
# Text: as §2
# rabbits = type: in vivo; settings: up to 1 g/kg
# Text: as §2
# mice = experiment: safety, intravenous injection in mice; type: in vivo; settings: up to 1 g/kg
# Text: as §2
# [4] = ofloxacin resistant Pseudomonas aeruginosa SR 5018, read-out: MIC
# [5] = SR24, Pseudomonas aeruginosa SR 24, Experiment 1, read-out: minimal inhibitory concentration
compound,measurement,setting,value
"CC(C)(ON=C(C(=O)N[C@@H]1C(=O)N2C(C(=O)[O-])=C(C[n+]3ccc4cc(O)c(O)cc4c3)CS[C@H]12)c1csc(N)n1)C(=O)O [BO-1341, 3-(6,7-dihydroxyisoquinolinio)methyl-7β-(2-(2-aminothiazol-4-yl)-2-(1-carboxy-1-methylethoxyimino)acetamido)-3-cephem-4-carboxylate, reference compound]",MIC,[1]; [4],0.4 µg/mL
same,MIC,Escherichia coli SR 5082,1.6 µg/mL
"CON=C(C(=O)N[C@@H]1C(=O)N2C(C(=O)[O-])=C(C[N+]34CCC(C(N)=O)(CC3)CC4)CS[C@H]12)c1nsc(N)n1 [E-1040, 3-(4-carbamoylquinuclidinio)methyl-7β-[2-(5-amino-1,2,4-thiadiazol-3-yl)-2-methoxyimino]-acetamido-3-cephem-4-carboxylate, reference compound]",MIC,[1]; Pseudomonas aeruginosa,6.3 µg/mL
O=C(Cc1ccccc1)N[C@@H]1C(=O)N2C(C(=O)[O-])=C(CSc3cc[n+](CC(=O)c4ccc(O)c(O)c4)cc3)CS[C@H]12 [No. 1],MIC,[2]; [5],> 100 µg/mL
CON=C(C(=O)N[C@@H]1C(=O)N2C(C(=O)[O-])=C(CSc3cc[n+](CC(=O)c4ccc(O)c(O)c4)cc3)CS[C@H]12)c1csc(N)n1 [No. 5],MIC,[2]; [5],0.4 µg/mL
CC(C)(ON=C(C(=O)N[C@@H]1C(=O)N2C(C(=O)[O-])=C(CSc3cc[n+](CC(=O)c4cccc(O)c4O)cc3)CS[C@H]12)c1csc(N)n1)C(=O)O [No. 7],MIC,[2]; [5],0.39 µg/mL
CC(C)(ON=C(C(=O)N[C@@H]1C(=O)N2C(C(=O)[O-])=C(CSc3cc[n+](CC(=O)c4ccc(O)c(O)c4)cc3)CS[C@H]12)c1csc(N)n1)C(=O)O [No. 8],MIC,[2]; [5],0.2 µg/mL
same,ED50,"[3]; Pseudomonas aeruginosa, SR24, read-out: ED50 (50% effective dose preventing lethal infection), Pseudomonas aeruginosa SR 24, mouse infection",1.35 to 6.27 mg/kg
CC(C)(ON=C(C(=O)N[C@@H]1C(=O)N2C(C(=O)[O-])=C(CSc3cc[n+](CC(=O)c4ccc(O)c(O)c4)cc3)C[S+]([O-])[C@H]12)c1csc(N)n1)C(=O)O (some centres unmarked) [No. 9],times activity versus E-1040 (MIC),[1]; Pseudomonas aeruginosa,63 times
same,times activity versus ceftazidime (MIC),[1]; Pseudomonas aeruginosa,250 times
same,MIC,[1]; [4],0.1 µg/mL
same,safety,various animals,highly safe
same,MIC,"[2]; Pseudomonas aeruginosa SR 24, listed as representative compound (I)",0.1 µg/mL
same,MIC,[2]; [5],0.1 µg/mL
same,MIC,"[2]; SR24, Pseudomonas aeruginosa SR 24, read-out: MIC",0.1 µg/mL
same,renal toxicity,rabbits,did not show renal toxicity
same,death,mice,no death
same,toxic effect as Antabuse-like activity,mice,no death nor toxic effect as Antabuse-like activity
same,MIC,Escherichia coli SR 5082,0.2 µg/mL
same,ED50 (50% effective dose preventing lethal infection),"[3]; Pseudomonas aeruginosa SR 24, mouse infection, listed as Compound (I) where X is sulfinyl",1.35 mg/kg
CC(=O)Oc1ccc(C(=O)C[n+]2ccc(SCC3=C(C(=O)[O-])N4C(=O)[C@@H](NC(=O)C(=NOC(C)(C)C(=O)O)c5csc(N)n5)[C@H]4SC3)cc2)cc1OC(C)=O [No. 11],MIC,[2]; [5],0.025 µg/mL
CC(C)(ON=C(C(=O)N[C@@H]1C(=O)N2C(C(=O)[O-])=C(CSc3cc[n+](CC(=O)c4ccc(O)c(O)c4)cc3)CO[C@H]12)c1csc(N)n1)C(=O)O [No. 13],MIC,[2]; [5],0.2 µg/mL
Cc1cc(O)c(O)cc1C(=O)C[n+]1ccc(SCC2=C(C(=O)[O-])N3C(=O)[C@@H](NC(=O)C(=NOC(C)(C)C(=O)O)c4csc(N)n4)[C@H]3SC2)cc1 [No. 14],MIC,[2]; [5],0.05 µg/mL
CC(C)(ON=C(C(=O)N[C@@H]1C(=O)N2C(C(=O)[O-])=C(CSc3cc[n+](CC(=O)c4cc(O)c(O)c(Cl)c4)cc3)CS[C@H]12)c1csc(N)n1)C(=O)O [No. 18],MIC,[2]; [5],0.025 µg/mL
"CC(C)(ON=C(C(=O)N[C@@H]1C(=O)N2C(C(=O)[O-])=C(CSc3cc[n+](CC(=O)c4cc(O)c(O)cc4Cl)cc3)CS[C@H]12)c1csc(N)n1)C(=O)O [No. 22 (3,4-OH-6-Cl)]",MIC,[2]; [5],0.025 µg/mL
CC(C(=O)c1ccc(O)c(O)c1)[n+]1ccc(SCC2=C(C(=O)[O-])N3C(=O)[C@@H](NC(=O)C(=NOC(C)(C)C(=O)O)c4csc(N)n4)[C@H]3SC2)cc1 (some centres unmarked) [No. 23],MIC,[2]; [5],0.025 µg/mL
CC(C)(ON=C(C(=O)N[C@@H]1C(=O)N2C(C(=O)[O-])=C(CSc3cc[n+](CC(=O)c4ccc(O)c(O)c4)c4c3CCC4)CS[C@H]12)c1csc(N)n1)C(=O)O [No. 25],MIC,[2]; [5],0.05 µg/mL
CC(C)(C=C(C(=O)N[C@@H]1C(=O)N2C(C(=O)[O-])=C(CSc3cc[n+](CC(=O)c4ccc(O)c(O)c4)cc3)CS[C@H]12)c1csc(N)n1)C(=O)O [No. 27],MIC,[2]; [5],0.1 µg/mL
"CC(C)(O/N=C(\C(=O)N[C@@H]1C(=O)N2C(C(=O)[O-])=C(C[n+]3ccccc3)CS[C@H]12)c1csc(N)n1)C(=O)O [ceftazidime, reference compound]",MIC,[1]; Pseudomonas aeruginosa,25 µg/mL
